According to article PMC10572428, “Possibility of Using Different Calcium Compounds for the Manufacture of Fresh Acid Rennet Cheese from Goat’s Milk” (Foods, 2023):
Where two headings read alike, the source gives them in different places. One block for each compound: values may come before it.

Key:
[1] = pH of fresh acid rennet cheese; assay type: physicochemical, goat
Description: Fresh acid rennet cheese was produced following the methodology by Pawlos et al. (Scheme 1). The caprine milk was divided into batches, each containing 2000 g of milk, heated to 25 °C, and treated with varying amounts and dosages of calcium compound. The control sample (0 mg Ca per 100 g of milk) and milk with calcium addition (5, 10, 15, 20 mg Ca per 100 g of milk) were pasteurized in a water bath at 90 °C for 15 s. Subsequently, the milk was cooled to 28 °C, and each batch was inoculated with 0.20% (w/w) of starter culture for 15 min before adding 0.02% (v/w) of rennet. […] Acid rennet curds were then cut into 15 × 15 × 15 mm cubes and heated in a water bath at 35 °C for 1.5 h. Following this, the temperature was increased to 40 °C for 0.5 h. The whey was separated using cheesecloth, and the curds were transferred to molds, pressed (10 N kg^−1, 0.5 h) using a pneumatic cylinder press (Pneumatig, Gdynia, Poland), and refrigerated in labeled individual plastic containers at 4 °C for 24 h prior to analysis. All physicochemical analyses were conducted on ground cheese samples.
A pH meter (FiveEasy Mettler Toledo, Greifensee, Switzerland) and an electrode InLab® Solids Pro-ISM (Mettler Toledo, Greifensee, Switzerland) were used to determine the pH value in cheese.

[2] = Texture profile analysis (TPA) of cheese; assay type: physicochemical, goat
Description: Fresh acid rennet cheese was produced following the methodology by Pawlos et al. (Scheme 1). The caprine milk was divided into batches, each containing 2000 g of milk, heated to 25 °C, and treated with varying amounts and dosages of calcium compound. The control sample (0 mg Ca per 100 g of milk) and milk with calcium addition (5, 10, 15, 20 mg Ca per 100 g of milk) were pasteurized in a water bath at 90 °C for 15 s. Subsequently, the milk was cooled to 28 °C, and each batch was inoculated with 0.20% (w/w) of starter culture for 15 min before adding 0.02% (v/w) of rennet. The mixture was stirred and incubated at 28 °C until the pH reached 4.60 (±0.50) in a Cooled Incubator ILW 115 (POL-EKO Aparatura, Wodzisław Śląski, Poland). Acid rennet curds were then cut into 15 × 15 × 15 mm cubes and heated in a water bath at 35 °C for 1.5 h. Following this, the temperature was increased to 40 °C for 0.5 h. The whey was separated using cheesecloth, and the curds were transferred to molds, pressed (10 N kg^−1, 0.5 h) using a pneumatic cylinder press (Pneumatig, Gdynia, Poland), and refrigerated in labeled individual plastic containers at 4 °C for 24 h prior to analysis. All physicochemical analyses were conducted on ground cheese samples.
The texture profile analysis test (TPA) was performed with a CT3 Texture Analyzer and Texture Pro CT 1.2 software (Brookfield AMETEK, Middleboro, MA, USA). Before testing, cheese samples were cut (20 × 20 × 20 mm) and kept at a temperature of 10 °C ± 1 °C. Compression test was performed using a plastic plunger type TA3/100 (25.4 mm diameter) and configured with the following parameters: distance 15 mm, measurement speed 5 mm s^−1, contact load 1.00 N, and hold time 1 s. The TPA test was applied to measure cheese hardness (N), adhesiveness (mJ), cohesiveness, and springiness (mm).

[3] = Thermal stability of goat milk proteins during pasteurization (90 °C, 15 s); assay type: physicochemical; details: doses up to 20 mg Ca per 100 g of milk
Description: (§1) Doses of calcium (5, 10, 15, and 20 mg Ca 100 g^−1 milk), based on the calcium compound’s molecular weight, were added to 100 g of raw goat’s milk in the form of chloride, gluconate, lactate, and carbonate and tested to determine the pH value and thermal stability of milk. A control sample (0 mg Ca 100 g^−1 milk) was also prepared. The samples were heated in a water bath to 25 °C, mixed, and pasteurized (90 °C, 15 s). In the cooled (25 °C) samples of control milk and milk with calcium addition, the pH value was determined using a FiveEasy pH meter with an electrode InLab® Solids Pro-ISM (Mettler Toledo, Greifensee, Switzerland).

[4] = pH value of goat's milk after pasteurization with added calcium compound; assay type: physicochemical
Description: as §1

[5] = set-up: method as in doi:10.21608/jfds.2019.54698; details: cited from earlier work
[6] = set-up: method as in doi:10.1111/j.1471-0307.2010.00613.x; details: 30 mM calcium added before heating; cited from earlier work

pH ([1]; cheese, 20 mg Ca 100 g^−1 of milk): 4.61
Cohesiveness ([2]; 15 mg Ca 100 g^−1 of milk): 0.30
Springiness ([2]; 15 mg Ca 100 g^−1 of milk): 3.94 mm
thermal stability of milk during pasteurization [3]: not reduced
Compound: O=C([O-])[C@H](O)[C@@H](O)[C@H](O)[C@H](O)CO.O=C([O-])[C@H](O)[C@@H](O)[C@H](O)[C@H](O)CO.[Ca+2] [Gluconate, calcium gluconate]

Compound: O=C([O-])[O-].[Ca+2] [Carbonate, calcium carbonate]
increase of milk pH value compared to the control sample [4]: 0.11
cheese pH value higher than the control cheese [1]: 0.19
thermal stability of milk during pasteurization [3]: not reduced

thermal stability of milk during pasteurization [3]: not reduced
Compound: CC(O)C(=O)[O-].CC(O)C(=O)[O-].[Ca+2] (stereo not drawn) [Lactate, calcium lactate]

reduction of milk pH value compared to the control sample ([4]; greatest reduction): 0.23
reduction of milk pH ([4]; lowest dose of calcium, 5 mg 100 g^−1): 0.17
Springiness ([2]; 5 mg Ca 100 g^−1 of milk): 1.27 mm
thermal stability of milk during pasteurization [3]: not reduced
Compound: [Ca+2].[Cl-].[Cl-] [Chloride, Calcium chloride]
pH of Karish cheese ([5]; 200 mg 100 mL^−1 added to milk): 4.69
pH of Karish cheese ([5]; 300 mg 100 mL^−1 added to milk): 4.50
reduction of pH of cow's milk [6]: up to 0.64
